{"source": "patent US20060167098A1", "about": "“Method for the treatment of diseases linked to an accumulation of triglycerides and cholesterol” (Institut National De La Sante ET De LA Recherche Medicale …, priority 2003, published 2006)", "type_in_all_cases": "in vivo", "key": {"[1]": {"experiment": "Plasma lipids in Swiss mice fed with a western diet, 6 weeks, 48-hour fast", "conditions": "100 mg/kg/day", "method": "Plasma lipids (triglycerides, total cholesterol, phospholipids) were measured on an automatic analyser (Hitachi 717®). The commercial kits used to assess triglycerides, total cholesterol and phospholipids on this analyser were all from bioMérieux (references 61238, 61219 and 61491, respectively). Plasma non esterified fatty acids (NEFA) were assessed by using a commercial kit (Wako, reference 994-75409). Hepatic and plasma lipids were performed at the end of six weeks of treatment in animals that have been fasted for 48 hours. Triglycerides and HDL-cholesterol were also assessed after 2 months (in the fed state) or after 4 months of treatment (after an overnight fast).\nPlasma lipids were assessed in mice fed with the western diet (WD) and receiving or not of 100 mg/kg/day of β-aminoisobutyric acid (BAIBA) in the drinking water (8 mice in each group). For comparison, the experiment also included a group of mice (n=8) fed with a standard diet (SD). These animals were those used for the determination of body fat by DEXA and liver lipids (see above, paragraph I-c and II-a, respectively). After the last DEXA measurement (after 6 weeks of treatment), mice were allowed to recover from the anaesthesia for ca. 2 days and were then submitted to a 48-hour period of fast. At the end of this fasting period, a sample of blood was collected (from the retroorbital sinus) […] and plasma triglycerides, phospholipids, total cholesterol and non-esterified fatty acids (NEFA) were subsequently determined. After 6 weeks, the western diet was responsible for an increase of all plasma lipids, but the most affected lipids were triglycerides."}, "[2]": {"experiment": "Plasma glucose, insulin and adiponectin in very young ob/ob mice (5-6 weeks old), 6 weeks", "method": "(§1) Plasma glucose was measured on an automatic analyser (Synchron LX20 from Beckman Coulter) with a commercial kit (kit n°472500 from Beckman).\nPlasma insulin, adiponectin and leptin were measured by radioimmunoassay (RIA). Insulin was measured with the Insulin-CT kit from Cis Bio International (Gif-sur-Yvette, France), whereas plasma leptin and adiponectin were assessed with kits from Linco Research Inc. (St Charles, Mo.). Leptin was not measured in ob/ob mice since these animals are genetically leptin-deficient (Friedman J. M., Halaas J. L., 1998, Nature 395: 763-770). Results regarding insulin were expressed as recommended by kit manufacturer.\nIn another experiment, very young ob/ob mice (5-6 weeks old) were treated with 100 mg/kg/d of β-aminoisobutyric acid for 6 weeks and fasted for the last 48 hours. Although plasma glucose was not decreased in treated mice, there was a clear trend toward lower insulin and higher adiponectin. Indeed, plasma insulin was 56±9 and 37±5 μU/ml (p=0.08), respectively in control mice (n=7) and mice treated with β-aminoisobutyric acid (n=7). Plasma adiponectin was 8.0±1.1 and 10.9±1.2 μg/ml (p=0.08), respectively in control mice (n=7) and mice treated with β-aminoisobutyric acid (n=7)."}, "[3]": {"experiment": "Plasma glucose in lean mice, standard diet, 6 weeks, not fasted", "conditions": "100 mg/kg/day 6 weeks", "method": "as §1\nIn a second series of experiments plasma glucose was assessed in lean mice fed with the standard diet and receiving (6 mice) or not (6 mice) 100 mg/kg/day of β-aminoisobutyric acid in the drinking water for 6 weeks, but at the end of the experiment, mice were not fasted. […] Indeed, plasma glucose was 11.5±0.8 and 10.7±0.4 mmol/L, respectively in control and treated mice."}, "[4]": {"conditions": "100 mg/kg/d 6 weeks, very young ob/ob, fasted 48 hours, p=0.08"}}}
{"smiles": "CC(CN)C(=O)O", "note": "(racemic) [BAIBA, D,L-β-Aminoisobutyric acid]", "values": [{"measurement": "decrease of plasma NEFA", "setting": "[1]", "value": 16, "unit": "%"}, {"measurement": "decrease of total cholesterol", "setting": "[1]", "value": 4, "unit": "%"}, {"measurement": "plasma NEFA", "setting": "[1]", "value": "0.88 ± 0.06", "unit": "mmol/L"}, {"measurement": "plasma total cholesterol", "setting": "[1]", "value": "6.71 ± 0.27", "unit": "mmol/L"}, {"measurement": "plasma triglycerides", "setting": "[1]", "value": "1.54 ± 0.13", "unit": "mmol/L"}, {"measurement": "reduction of plasma triglycerides", "setting": "[1]; not significant", "value": 22, "unit": "%"}, {"measurement": "plasma glucose vs control", "setting": "[2]; 100 mg/kg/d 6 weeks, very young ob/ob, fasted 48 hours", "value": "not decreased"}, {"measurement": "plasma adiponectin", "setting": "[2]; [4]", "value": "10.9 ± 1.2", "unit": "µg/mL"}, {"measurement": "plasma insulin", "setting": "[2]; [4]", "value": "37±5", "unit": "μU/ml"}, {"measurement": "increase of plasma level of adiponectin", "setting": "[2]; obese mice", "value": "around 35%"}, {"measurement": "plasma glucose", "setting": "[3]", "value": "10.7 ± 0.4", "unit": "mmol/L"}]}
